According to PubChem BioAssay (NCI):
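Five compound concentrations were applied to cells in 96-well plates for 48 hours; endpoints were derived by simple linear interpolation of the resulting dose-response curve. TGI: concentration producing complete growth inhibition.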

Tests used:
Assay in all cases: DTP human tumour cell line panel, 48 h
A549 NSCLC = system: A549 NSCLC
SN12C renal = system: SN12C renal
UACC-62 melanoma = system: UACC-62 melanoma
M19-MEL melanoma = system: M19-MEL melanoma
UO-31 renal = system: UO-31 renal
HT29 colon = system: HT29 colon
SK-OV-3 ovarian = system: SK-OV-3 ovarian
MOLT-4 leukemia = system: MOLT-4 leukemia
NCI-H460 lung = system: NCI-H460 lung
SK-MEL-2 melanoma = system: SK-MEL-2 melanoma
EKVX NSCLC = system: EKVX NSCLC
M14 melanoma = system: M14 melanoma
SK-MEL-28 melanoma = system: SK-MEL-28 melanoma
CAKI-1 renal = system: CAKI-1 renal
SNB-78 CNS = system: SNB-78 CNS
U251 CNS = system: U251 CNS
SF-539 CNS = system: SF-539 CNS
LOX IMVI melanoma = system: LOX IMVI melanoma
SNB-75 CNS = system: SNB-75 CNS
HOP-92 NSCLC = system: HOP-92 NSCLC
A498 renal = system: A498 renal
KM20L2 colon = system: KM20L2 colon
KM12 colon = system: KM12 colon
RXF-631 renal = system: RXF-631 renal
HCT-116 colon = system: HCT-116 colon
OVCAR-8 ovarian = system: OVCAR-8 ovarian
XF 498 CNS = system: XF 498 CNS
NCI-H23 lung = system: NCI-H23 lung
OVCAR-5 ovarian = system: OVCAR-5 ovarian
RXF 393 renal = system: RXF 393 renal
RPMI-8226 leukemia = system: RPMI-8226 leukemia
IGROV1 ovarian = system: IGROV1 ovarian
SW-620 colon = system: SW-620 colon
LXFL 529 NSCLC = system: LXFL 529 NSCLC
SK-MEL-5 melanoma = system: SK-MEL-5 melanoma
DMS 273 small cell lung = system: DMS 273 small cell lung
SNB-19 CNS = system: SNB-19 CNS
DLD-1 colon = system: DLD-1 colon
OVCAR-3 ovarian = system: OVCAR-3 ovarian
TK-10 renal = system: TK-10 renal
OVCAR-4 ovarian = system: OVCAR-4 ovarian
HCC-2998 colon = system: HCC-2998 colon
K-562 leukemia = system: K-562 leukemia
HOP-18 NSCLC = system: HOP-18 NSCLC
HOP-62 NSCLC = system: HOP-62 NSCLC
HCT-15 colon = system: HCT-15 colon
786-0 renal = system: 786-0 renal
UACC-257 melanoma = system: UACC-257 melanoma
ACHN renal = system: ACHN renal
NCI-H522 lung = system: NCI-H522 lung
SF-295 CNS = system: SF-295 CNS
DMS 114 small cell lung = system: DMS 114 small cell lung
MALME-3M melanoma = system: MALME-3M melanoma
COLO 205 colon = system: COLO 205 colon
NCI-H226 lung = system: NCI-H226 lung
SR leukemia = system: SR leukemia
SF-268 CNS = system: SF-268 CNS
HL-60(TB) leukemia = system: HL-60(TB) leukemia

Measured: TGI

NC(=O)C(=Cc1ccc(C(O)P(=O)(O)O)cc1)C(N)=O (stereo not given)
not listed: NCI-H226 lung | SR leukemia | SF-268 CNS | HL-60(TB) leukemia
> 100 µM: all other assays above

C=CC1(C(=O)O)CCC(C(C)(C)C)CC1 (stereo not given)
not listed: SK-MEL-28 melanoma | LOX IMVI melanoma
> 100 µM: all other assays above
